# Assays:
# endogenous human TRPA1 = molecular target: T1, endogenous human TRPA1 (Homo sapiens, UniProt O75762); assay: Whole cell current in untransfected CCD-18Co cells; format: cell-based; settings: without expression of zTrpa1b, violet and green light
# T1 construct: human colonic fibroblast cells, CCD-18Co, which express human TRPA1 endogenously; endogenous in cells; host or cells: CCD-18Co (ATCC), untransfected
# Procedure: Immortalized HEK293T cells or human colonic fibroblast cells (CCD-18Co; ATCC) were used. HEK293T cells were plated on […] cover slips and transiently transfected with 10 μg of Trpa1b plasmid (pCMV-zTrpa1b-FLAG) (SEQ ID NO:3) and 5 μg of mNeonGreen cDNA (Allele Biotechnology), then grown in a 6 cm plate for 24-48 h. CCD-18Co were cultured in Eagle's minimal essential medium with 10% FBS, 1× penicillin and streptomycin. CCD-18Co cells were plated on 12 mm cover slips and transiently transfected with 5 μg of zTrpa1b plasmid (pCMV-zTrpa1b-FLAG) together with 5 μg of mNeonGreen cDNA (Allele Biotechnology), then grown in a […] plate for 48-72 h. After this time, the cover slips were transferred to a recording chamber containing an extracellular solution composed of 145 mM sodium gluconate, 4 mM KCl, 3 mM MgCl2, 10 mM D-glucose, 10 mM HEPES; pH 7.4 adjusted with NaOH. The internal solution contained 122 mM cesium methane sulfonate, 1.8 mM MgCl2, 9 mM EGTA, 14 mM creatine phosphate (sodium salt), 4 mM Mg-ATP, 0.3 mM Na-GTP, 10 mM HEPES, pH 7.2 adjusted with CsOH. […] Whole cell currents were measured on an Axopatch 200B amplifier (Molecular De-vices) under the control of pClamp software. […] Basal Trpa1b whole cell currents were measured with a ramp protocol (˜100 to +100 mV, at a holding potential of 0 mV). […] The p values were calculated using a two-tailed, paired Student's t-test.
# Trpa1b−/− embryos = assay: Rescue experiment, Trpa1b−/− embryos without re-expression; format: in vivo, zebrafish; settings: 20 μM, motion within 5 s after 1 s WL3
# Procedure: For Trpa1b ohnolog and paralog rescue experiments, Trpa1b^−/− embryos were injected with ngn1:zTrpa1b-2A-mCherry (partial plasmid sequence in SEQ ID NO:5), ngn1:zTrpa1a-2A-mCherry, ngn1:hTRPA1-2A-EGFP or ngn1:mTRPA1-2A-mCherry at the 1-cell stage for mosaic Rohon-beard neuron expression. Embryos were screened at 2 dpf for fluorescent expression in Rohon-beard neurons, incubated with 20 μM TRPswitch-B for 1 hr and decapitated posterior to the eyes right before experiments. NA 0.25 5× objective and 1 s WL3 light illumination was used.
# To test the potential cross activity of TRPswitch-B on the zebrafish ohnolog Trpa1a and on mammalian orthologs, zebrafish Trpa1a, mouse TRPA1 or human TRPA1 were transiently re-expressed in the Rohon-beard neurons of mutant Trpa1b^−/− zebrafish and performed light-induced motion response experiments in the presence of TRPswitch-B. Rescue experiments were performed in Trpa1b^−/− zebrafish with transient mosaic re-expression of zebrafish Trpa1b (zTrpa1b), zebrafish Trpa1a (zTrpa1a), mouse TRPA1 (mTRPA1) or human TRPA1 (hTRAP1) in Rohon-beard neurons. Embryos were pre-treated with 20 μM TRPswitch-B and decapitated right before light stimulation to eliminate the light response mediated by the retina (Table 5). […]
# T1 sequence (O75762 whole entry): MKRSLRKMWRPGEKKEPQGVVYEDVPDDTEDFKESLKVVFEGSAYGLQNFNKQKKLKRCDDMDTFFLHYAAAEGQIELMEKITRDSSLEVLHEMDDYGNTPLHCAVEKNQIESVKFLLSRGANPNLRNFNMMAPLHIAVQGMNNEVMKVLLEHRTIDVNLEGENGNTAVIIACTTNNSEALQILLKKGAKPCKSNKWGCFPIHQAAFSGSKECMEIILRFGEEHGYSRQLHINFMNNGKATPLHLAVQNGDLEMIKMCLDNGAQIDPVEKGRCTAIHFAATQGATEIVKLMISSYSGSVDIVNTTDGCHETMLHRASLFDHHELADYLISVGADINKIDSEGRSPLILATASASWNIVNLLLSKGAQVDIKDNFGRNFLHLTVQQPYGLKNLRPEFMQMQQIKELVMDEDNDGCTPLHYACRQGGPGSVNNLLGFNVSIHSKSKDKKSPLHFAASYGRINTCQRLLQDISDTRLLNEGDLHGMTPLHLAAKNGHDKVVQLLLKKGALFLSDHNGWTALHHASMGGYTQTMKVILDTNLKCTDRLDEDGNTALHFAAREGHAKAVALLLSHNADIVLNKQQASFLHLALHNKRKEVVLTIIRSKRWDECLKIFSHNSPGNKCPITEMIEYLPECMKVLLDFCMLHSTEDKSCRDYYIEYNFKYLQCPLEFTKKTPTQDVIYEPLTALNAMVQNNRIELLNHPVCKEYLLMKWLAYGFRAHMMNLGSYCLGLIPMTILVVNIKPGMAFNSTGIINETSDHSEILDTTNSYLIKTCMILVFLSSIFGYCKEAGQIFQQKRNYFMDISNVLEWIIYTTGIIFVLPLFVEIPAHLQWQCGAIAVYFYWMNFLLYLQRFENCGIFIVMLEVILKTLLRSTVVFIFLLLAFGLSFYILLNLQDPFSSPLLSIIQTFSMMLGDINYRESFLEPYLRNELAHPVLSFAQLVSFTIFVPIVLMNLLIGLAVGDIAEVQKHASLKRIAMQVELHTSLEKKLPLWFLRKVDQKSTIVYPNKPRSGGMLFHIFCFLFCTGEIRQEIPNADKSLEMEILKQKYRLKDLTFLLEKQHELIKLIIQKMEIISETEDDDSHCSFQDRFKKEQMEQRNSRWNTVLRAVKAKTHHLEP
smiles,measurement,setting,value
"Cc1nn(C)c(C)c1/N=N/c1ccc(NC(=O)c2cccs2)cc1NC(=O)c1cccs1 [Compound 9, (E)-N,N′-(4-((1,3,5-trimethyl-1H-pyrazol-4-yl)diazenyl)-1,3-phenylene)bis(thiophene-2-carboxamide)]",light induced photocurrent / cross reaction with endogenous human TRPA1,endogenous human TRPA1,does not cross react
same,% response,Trpa1b−/− embryos,0%

# From patent US20220280644A1, “"TRPswitch" - A STEP FUNCTION CHEMO-OPTOGENETIC LIGAND” (UNIVERSITY OF UTAH RESEARCH FOUNDATION, priority 2019, published 2022)
